# Data from patent US20260364145A1, “MODIFIED CAVEOLIN-1 PEPTIDE FORMULATIONS AND METHODS OF MANUFACTURING AND USE THEREOF” (REIN THERAPEUTICS, INC., priority 2023, published 2026).
# Values joined by “and” are separate entries in the source; they are usually repeats but may differ in a detail not shown here. Equal entries are not always repeated. Where two headings read alike, the source gives them in different places. Non-standard residues stand in square brackets, D forms with d. Residues, ends and D or L forms follow the SMILES beside them.
# How the values were obtained:
# [1] = Plasma pharmacokinetics after single-dose subcutaneous administration; assay type: in vivo, rat (Sprague Dawley); conditions: for plasma concentration / concentration at 1 h / concentration at 2 h / concentration at 4 h / concentration at 8 h / concentration at 24 h / concentration at 48 h / concentration at 96 h / concentration at 168 h / concentration at 240 h / concentration at 336 h / concentration at 528 h / concentration at 696 h / concentration at 840 h / concentration at 1008 h: SC 2.0 mg/kg, 2 mg/kg; for concentration at 1 h / concentration at 2 h / concentration at 4 h / concentration at 8 h / concentration at 24 h / concentration at 48 h / concentration at 96 h / concentration at 168 h / concentration at 240 h / concentration at 336 h / concentration at 528 h / concentration at 696 h / concentration at 840 h / concentration at 1008 h: rat, plasma, sc
# Aqueous solubility = assay type: physicochemical
# [2] = APi2355 concentrations in BALF and tissues at 42 days post-treatment (LC/MS/MS); assay type: in vivo, rat (Sprague Dawley); conditions: for BALF concentration / Heart concentration / Kidney concentration / Liver concentration / Lung concentration / Skin concentration: SC 2.0 mg/kg, listed as APi2335, 2 mg/kg, 60480 min; for concentration at 1008 h: rat, sc, 2 mg/kg
# [3] = individual rats, Group 1, MSP #3 (W/O/W)
# [4] = individual rats, Group 2, MSP #5 (S/O/W)
compound,measurement,setting,value
"CC(=O)N[C@H](C)C(=O)N[C@H](C)C(=O)N[C@@H](CCC(=O)O)C(=O)NCC(=O)N[C@@H](CCCCN)C(=O)N[C@@H](C)C(=O)N[C@@H](CO)C(=O)N[C@@H](Cc1ccccc1)C(=O)N[C@H](C(=O)N[C@H](C(=O)N[C@@H](Cc1ccccc1)C(=O)N[C@H](C(=O)N[C@H](C(=O)N[C@H](C(=O)N[C@@H](CCCCN)C(=O)NCC(=O)N[C@@H](CO)C(=O)N[C@H](C)C(=O)N[C@H](C)C(N)=O)[C@@H](C)O)C(C)C)[C@@H](C)O)[C@@H](C)O)[C@@H](C)O [APi2355, Ac-aaEGKASFTTFTVTKGSaa-NH2] (Ac-[dA][dA]EGKASFTTFTVTKGS[dA][dA]-NH2)",plasma concentration,"[1]; 1 hr, individual rats, Group 1, MSP #3 (W/O/W), 60 min",16.02 ng/mL and 311.08 ng/mL
same,plasma concentration,"[1]; 2 hr, individual rats, Group 1, MSP #3 (W/O/W), 120 min",350.92 ng/mL and 558.41 ng/mL
same,plasma concentration,"[1]; 4 hr, individual rats, Group 1, MSP #3 (W/O/W), 240 min",501.64 ng/mL and 36.54 ng/mL
same,plasma concentration,"[1]; 8 hr, individual rats, Group 1, MSP #3 (W/O/W), 480 min",39.13 ng/mL and 12.62 ng/mL
same,plasma concentration,"[1]; 1 day, individual rats, Group 1, MSP #3 (W/O/W), 1440 min",34.98 ng/mL and 10.17 ng/mL
same,plasma concentration,"[1]; 2 day, individual rats, Group 1, MSP #3 (W/O/W), 2880 min",3.46 ng/mL
same,plasma concentration,"[1]; 4 day, individual rats, Group 1, MSP #3 (W/O/W), 5760 min",1.90 ng/mL
same,plasma concentration,"[1]; 7 day, individual rats, Group 1, MSP #3 (W/O/W), 10080 min",5.66 ng/mL
same,plasma concentration,"[1]; 10 day, individual rats, Group 1, MSP #3 (W/O/W), 14400 min",2.17 ng/mL
same,plasma concentration,"[1]; 14 day, individual rats, Group 1, MSP #3 (W/O/W), 20160 min",6.77 ng/mL and 6.89 ng/mL
same,plasma concentration,"[1]; 22 day, individual rats, Group 1, MSP #3 (W/O/W), 31680 min",7.52 ng/mL and 9.84 ng/mL
same,plasma concentration,"[1]; 29 day, individual rats, Group 1, MSP #3 (W/O/W), 41760 min",0.91 ng/mL and 1.57 ng/mL
same,plasma concentration,"[1]; 35 day, individual rats, Group 1, MSP #3 (W/O/W), 50400 min",0.32 ng/mL and 0.48 ng/mL
same,plasma concentration,"[1]; 42 day, individual rats, Group 1, MSP #3 (W/O/W), 60480 min",0.11 ng/mL and 4.85 ng/mL
same,fraction of total exposure in the first 3 weeks after SC administration,"[1]; first 3 weeks, SC 2.0 mg/kg APi2355",Approximately ⅔
same,concentration at 1 h,"[1]; 1 hr, mean, Group 1, MSP #3 (W/O/W)",157 ng/mL
same,concentration at 1 h,"[1]; 1 hr, mean, Group 2, MSP #5 (S/O/W)",175 ng/mL
same,concentration at 2 h,"[1]; 2 hr, mean, Group 1, MSP #3 (W/O/W)",198 ng/mL
same,concentration at 2 h,"[1]; 2 hr, mean, Group 2, MSP #5 (S/O/W)",287 ng/mL
same,concentration at 4 h,"[1]; 4 hr, mean, Group 1, MSP #3 (W/O/W)",185 ng/mL
same,concentration at 4 h,"[1]; 4 hr, mean, Group 2, MSP #5 (S/O/W)",195 ng/mL
same,concentration at 8 h,"[1]; 8 hr, mean, Group 1, MSP #3 (W/O/W)",195 ng/mL
same,concentration at 8 h,"[1]; 8 hr, mean, Group 2, MSP #5 (S/O/W)",130 ng/mL
same,concentration at 24 h,"[1]; 1 day, mean, Group 1, MSP #3 (W/O/W)",10.7 ng/mL
same,concentration at 24 h,"[1]; 1 day, mean, Group 2, MSP #5 (S/O/W)",9.53 ng/mL
same,concentration at 48 h,"[1]; 2 day, mean, Group 1, MSP #3 (W/O/W)",3.2 ng/mL
same,concentration at 48 h,"[1]; 2 day, mean, Group 2, MSP #5 (S/O/W)",5.23 ng/mL
same,concentration at 96 h,"[1]; 4 day, mean, Group 1, MSP #3 (W/O/W)",3.22 ng/mL
same,concentration at 96 h,"[1]; 4 day, mean, Group 2, MSP #5 (S/O/W)",3.69 ng/mL
same,concentration at 168 h,"[1]; 7 day, mean, Group 1, MSP #3 (W/O/W)",3.34 ng/mL
same,concentration at 168 h,"[1]; 7 day, mean, Group 2, MSP #5 (S/O/W)",3.37 ng/mL
same,concentration at 240 h,"[1]; 10 day, mean, Group 1, MSP #3 (W/O/W)",5.22 ng/mL
same,concentration at 240 h,"[1]; 10 day, mean, Group 2, MSP #5 (S/O/W)",10.5 ng/mL
same,concentration at 336 h,"[1]; 14 day, individual rats, Group 2, MSP #5 (S/O/W), read-out: plasma concentration",0.98 ng/mL
same,concentration at 336 h,"[1]; 14 day, mean, Group 1, MSP #3 (W/O/W), read-out: plasma concentration, Avg.",5.41 ng/mL
same,concentration at 336 h,"[1]; 14 day, mean, Group 2, MSP #5 (S/O/W), read-out: plasma concentration, Avg.",1.14 ng/mL
same,concentration at 528 h,"[1]; 22 day, mean, Group 1, MSP #3 (W/O/W)",6.35 ng/mL
same,concentration at 528 h,"[1]; 22 day, mean, Group 2, MSP #5 (S/O/W)",5.26 ng/mL
same,concentration at 696 h,"[1]; 29 day, mean, Group 1, MSP #3 (W/O/W)",2.53 ng/mL
same,concentration at 696 h,"[1]; 29 day, mean, Group 2, MSP #5 (S/O/W)",2 ng/mL
same,concentration at 840 h,"[1]; 35 day, mean, Group 1, MSP #3 (W/O/W)",0.57 ng/mL
same,concentration at 840 h,"[1]; 35 day, mean, Group 2, MSP #5 (S/O/W)",0.26 ng/mL
same,concentration at 1008 h,"[1]; 42 day, mean, Group 1, MSP #3 (W/O/W)",1.2 ng/mL
same,concentration at 1008 h,"[1]; 42 day, mean, Group 2, MSP #5 (S/O/W)",0.72 ng/mL
same,aqueous solubility,Aqueous solubility,relatively low aqueous solubility
same,BALF concentration,[2]; [3],5.67 ng/mL and 1.45 ng/mL and 1.89 ng/mL and 1.47 ng/mL and 0.63 ng/mL and 1.53 ng/mL
same,Heart concentration,[2]; [3],10.46 ng/g and 13.81 ng/g and 8.97 ng/g and 11.09 ng/g and 3.41 ng/g and 8.39 ng/g
same,Kidney concentration,[2]; [3],63.91 ng/g and 53.55 ng/g and 30.02 ng/g and 62.91 ng/g and 57.32 ng/g and 66.29 ng/g
same,Liver concentration,[2]; [3],5.46 ng/g and 1.23 ng/g and 0.69 ng/g and 1.85 ng/g and 3.65 ng/g and 2.86 ng/g
same,Lung concentration,[2]; [3],37.40 ng/g and 29.17 ng/g and 36.51 ng/g and 62.92 ng/g and 36.86 ng/g and 38.80 ng/g
same,BALF concentration,[2]; [4],0.45 ng/mL and 0.23 ng/mL and 0.70 ng/mL and 0.52 ng/mL and 4.10 ng/mL and 2.17 ng/mL and 0.71 ng/mL
same,Heart concentration,[2]; [4],14.37 ng/g and 14.17 ng/g and 9.32 ng/g and 7.53 ng/g and 15.87 ng/g and 12.57 ng/g and 16.18 ng/g
same,Kidney concentration,[2]; [4],31.78 ng/g and 41.08 ng/g and 52.67 ng/g and 38.43 ng/g and 33.98 ng/g and 36.28 ng/g
same,Liver concentration,[2]; [4],8.34 ng/g and 8.26 ng/g and 0.24 ng/g and 0.47 ng/g and 1.33 ng/g and 4.81 ng/g and 5.22 ng/g
same,Lung concentration,[2]; [4],35.15 ng/g and 31.08 ng/g and 28.00 ng/g and 53.76 ng/g and 47.20 ng/g and 35.92 ng/g
same,Skin concentration,"[2]; injection site skin, individual rats, Group 1, MSP #3 (W/O/W)",29.72 ng/g and 13.12 ng/g and 14.02 ng/g and 20.81 ng/g and 2.28 ng/g and 31.92 ng/g
same,Skin concentration,"[2]; injection site skin, individual rats, Group 2, MSP #5 (S/O/W)",4.08 ng/g and 4.10 ng/g and 2.92 ng/g and 3.69 ng/g and 3.40 ng/g and 14.71 ng/g and 1.60 ng/g
same,concentration at 1008 h,"[2]; balf, mean, Group 1, MSP #3 (W/O/W), read-out: BALF concentration, Avg.",2.11 ng/mL
same,concentration at 1008 h,"[2]; balf, mean, Group 2, MSP #5 (S/O/W), read-out: BALF concentration, Avg.",1.27 ng/mL
same,concentration at 1008 h,"[2]; heart, mean, Group 1, MSP #3 (W/O/W), read-out: Heart concentration, Avg.",9.35 ng/g
same,concentration at 1008 h,"[2]; heart, mean, Group 2, MSP #5 (S/O/W), read-out: Heart concentration, Avg.",12.9 ng/g
same,concentration at 1008 h,"[2]; injection site skin, injection site skin, mean, Group 1, MSP #3 (W/O/W), read-out: Skin concentration, Avg.",18.6 ng/g
same,concentration at 1008 h,"[2]; injection site skin, injection site skin, mean, Group 2, MSP #5 (S/O/W), read-out: Skin concentration, Avg.",4.93 ng/g
same,concentration at 1008 h,"[2]; kidney, individual rats, Group 2, MSP #5 (S/O/W), read-out: Kidney concentration",33.1 ng/g
same,concentration at 1008 h,"[2]; kidney, mean, Group 1, MSP #3 (W/O/W), read-out: Kidney concentration, Avg.",55.7 ng/g
same,concentration at 1008 h,"[2]; kidney, mean, Group 2, MSP #5 (S/O/W), read-out: Kidney concentration, Avg.",38.2 ng/g
same,concentration at 1008 h,"[2]; liver, mean, Group 1, MSP #3 (W/O/W), read-out: Liver concentration, Avg.",2.62 ng/g
same,concentration at 1008 h,"[2]; liver, mean, Group 2, MSP #5 (S/O/W), read-out: Liver concentration, Avg.",4.09 ng/g
same,concentration at 1008 h,"[2]; lung, individual rats, Group 2, MSP #5 (S/O/W), read-out: Lung concentration",35.9 ng/g
same,concentration at 1008 h,"[2]; lung, mean, Group 1, MSP #3 (W/O/W), read-out: Lung concentration, Avg.",40.3 ng/g
same,concentration at 1008 h,"[2]; lung, mean, Group 2, MSP #5 (S/O/W), read-out: Lung concentration, Avg.",38.1 ng/g
